This is an account of results in ChEMBL document CHEMBL5653631, “A Potent and Selective ULK1 Inhibitor Suppresses Autophagy and Sensitizes Cancer Cells to Nutrient Stress” (iScience, 2018).

SMILES strings stand for the structures.

The target in experiment [1] is T1, Myosin-IIIb (Homo sapiens) (UniProt Q8WXR4).
T1 sequence (whole entry): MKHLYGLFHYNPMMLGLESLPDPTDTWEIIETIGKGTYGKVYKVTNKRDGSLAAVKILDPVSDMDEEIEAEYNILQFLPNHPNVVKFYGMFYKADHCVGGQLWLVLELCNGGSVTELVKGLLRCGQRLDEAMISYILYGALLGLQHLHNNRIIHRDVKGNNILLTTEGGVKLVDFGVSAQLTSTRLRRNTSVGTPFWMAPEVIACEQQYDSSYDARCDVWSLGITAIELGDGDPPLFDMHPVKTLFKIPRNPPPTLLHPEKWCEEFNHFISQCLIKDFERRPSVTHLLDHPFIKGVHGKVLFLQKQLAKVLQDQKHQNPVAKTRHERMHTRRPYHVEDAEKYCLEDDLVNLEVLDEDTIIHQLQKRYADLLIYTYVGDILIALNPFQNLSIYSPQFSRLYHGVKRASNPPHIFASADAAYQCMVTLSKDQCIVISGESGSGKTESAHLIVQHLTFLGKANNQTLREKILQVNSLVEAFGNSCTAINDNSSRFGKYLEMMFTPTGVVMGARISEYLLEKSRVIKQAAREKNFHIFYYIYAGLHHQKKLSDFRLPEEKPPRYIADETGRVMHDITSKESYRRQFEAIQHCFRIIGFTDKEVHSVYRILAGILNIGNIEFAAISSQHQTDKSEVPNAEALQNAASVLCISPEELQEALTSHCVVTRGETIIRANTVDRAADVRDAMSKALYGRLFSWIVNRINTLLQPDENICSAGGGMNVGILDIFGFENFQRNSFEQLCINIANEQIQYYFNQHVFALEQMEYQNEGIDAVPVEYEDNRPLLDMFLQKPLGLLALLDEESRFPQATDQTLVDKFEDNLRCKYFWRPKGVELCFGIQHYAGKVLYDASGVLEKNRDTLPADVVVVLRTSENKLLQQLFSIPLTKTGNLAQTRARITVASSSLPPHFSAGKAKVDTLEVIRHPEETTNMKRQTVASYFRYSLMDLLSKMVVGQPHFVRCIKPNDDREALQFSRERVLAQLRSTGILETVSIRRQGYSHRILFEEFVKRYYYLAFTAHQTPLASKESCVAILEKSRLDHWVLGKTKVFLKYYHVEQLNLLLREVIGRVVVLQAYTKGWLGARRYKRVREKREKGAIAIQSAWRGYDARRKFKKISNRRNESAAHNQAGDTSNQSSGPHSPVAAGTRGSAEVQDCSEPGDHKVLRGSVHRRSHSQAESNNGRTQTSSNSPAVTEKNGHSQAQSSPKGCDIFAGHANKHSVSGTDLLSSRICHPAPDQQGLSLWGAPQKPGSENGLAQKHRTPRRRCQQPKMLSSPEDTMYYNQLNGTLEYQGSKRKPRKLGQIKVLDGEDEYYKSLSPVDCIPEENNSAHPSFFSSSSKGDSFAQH
The experiment is described as follows: Inhibition of human recombinant MYO3B at 15 nM in presence of ATP by radiometric assay relative to control.

The target of experiment [2] is T2, Eukaryotic translation initiation factor 2-alpha kinase 3 (Homo sapiens) (UniProt Q9NZJ5).
T2 sequence (whole entry): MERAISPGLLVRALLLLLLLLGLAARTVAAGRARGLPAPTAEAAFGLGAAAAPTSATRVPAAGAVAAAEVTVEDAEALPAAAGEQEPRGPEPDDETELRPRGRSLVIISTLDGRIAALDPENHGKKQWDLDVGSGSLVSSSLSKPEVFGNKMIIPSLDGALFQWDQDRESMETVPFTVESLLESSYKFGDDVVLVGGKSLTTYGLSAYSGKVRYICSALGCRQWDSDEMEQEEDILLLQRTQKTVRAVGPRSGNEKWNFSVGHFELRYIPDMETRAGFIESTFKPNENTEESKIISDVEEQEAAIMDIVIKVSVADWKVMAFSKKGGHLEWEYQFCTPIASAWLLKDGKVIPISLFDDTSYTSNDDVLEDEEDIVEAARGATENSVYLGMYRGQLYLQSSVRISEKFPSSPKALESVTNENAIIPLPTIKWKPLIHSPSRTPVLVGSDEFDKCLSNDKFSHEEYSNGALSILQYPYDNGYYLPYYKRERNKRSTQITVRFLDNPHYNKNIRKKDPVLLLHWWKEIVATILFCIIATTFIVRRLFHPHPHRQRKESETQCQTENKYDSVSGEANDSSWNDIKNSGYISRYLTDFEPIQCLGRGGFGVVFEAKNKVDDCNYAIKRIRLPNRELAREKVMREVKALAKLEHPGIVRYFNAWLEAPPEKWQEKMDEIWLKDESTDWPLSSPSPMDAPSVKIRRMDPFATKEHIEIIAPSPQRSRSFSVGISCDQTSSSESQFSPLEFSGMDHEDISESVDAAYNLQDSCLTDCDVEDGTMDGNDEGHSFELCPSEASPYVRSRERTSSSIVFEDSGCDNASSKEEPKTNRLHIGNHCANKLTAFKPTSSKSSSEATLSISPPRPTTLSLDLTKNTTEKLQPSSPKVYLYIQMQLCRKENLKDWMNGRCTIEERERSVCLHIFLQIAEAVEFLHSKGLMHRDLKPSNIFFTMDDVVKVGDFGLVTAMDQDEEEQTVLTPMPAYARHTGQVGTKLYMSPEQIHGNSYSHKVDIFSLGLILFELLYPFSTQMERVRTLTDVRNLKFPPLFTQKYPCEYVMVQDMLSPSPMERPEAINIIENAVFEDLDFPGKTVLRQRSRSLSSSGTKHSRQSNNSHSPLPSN
Nature of the experiment: Inhibition of human recombinant PEK at 15 nM related to control ULK1.

Experiment [3] concerns the target Phosphorylase b kinase gamma catalytic chain, skeletal muscle/heart isoform (Homo sapiens) (UniProt Q16816). Nature of the experiment: Inhibition of human recombinant PHKg1 at 15 nM in presence of ATP by radiometric assay relative to control.
The target in experiment [4] is Receptor-interacting serine/threonine-protein kinase 2 (Homo sapiens) (UniProt O43353). The experiment is described as follows: Inhibition of human recombinant RIPK2 at 15 nM related to control ULK1.
Receptor-interacting serine/threonine-protein kinase 2 (Homo sapiens), sequence (O43353 whole entry): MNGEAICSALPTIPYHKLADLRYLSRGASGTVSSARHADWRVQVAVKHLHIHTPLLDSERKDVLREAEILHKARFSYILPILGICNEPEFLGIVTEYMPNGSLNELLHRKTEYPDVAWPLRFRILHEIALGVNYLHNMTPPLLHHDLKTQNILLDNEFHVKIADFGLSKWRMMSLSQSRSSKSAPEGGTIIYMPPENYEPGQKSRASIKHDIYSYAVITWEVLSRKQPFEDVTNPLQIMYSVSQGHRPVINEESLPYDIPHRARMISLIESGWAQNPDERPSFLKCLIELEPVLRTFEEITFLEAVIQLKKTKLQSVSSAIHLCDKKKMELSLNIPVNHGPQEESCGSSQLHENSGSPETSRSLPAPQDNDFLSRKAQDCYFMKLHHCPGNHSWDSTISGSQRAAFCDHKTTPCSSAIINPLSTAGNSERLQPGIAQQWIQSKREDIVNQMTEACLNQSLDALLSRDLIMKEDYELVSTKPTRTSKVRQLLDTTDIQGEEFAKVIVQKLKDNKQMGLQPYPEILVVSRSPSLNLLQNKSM
Experiment [5] has as its target Death-associated protein kinase 2 (Homo sapiens) (UniProt Q9UIK4). The experiment is described as follows: Inhibition of human recombinant DAPK2 at 500 nM related to control ULK1.

Phosphorylase b kinase gamma catalytic chain, skeletal muscle/heart isoform (Homo sapiens), sequence (Q16816 whole entry, looked up, canonical isoform): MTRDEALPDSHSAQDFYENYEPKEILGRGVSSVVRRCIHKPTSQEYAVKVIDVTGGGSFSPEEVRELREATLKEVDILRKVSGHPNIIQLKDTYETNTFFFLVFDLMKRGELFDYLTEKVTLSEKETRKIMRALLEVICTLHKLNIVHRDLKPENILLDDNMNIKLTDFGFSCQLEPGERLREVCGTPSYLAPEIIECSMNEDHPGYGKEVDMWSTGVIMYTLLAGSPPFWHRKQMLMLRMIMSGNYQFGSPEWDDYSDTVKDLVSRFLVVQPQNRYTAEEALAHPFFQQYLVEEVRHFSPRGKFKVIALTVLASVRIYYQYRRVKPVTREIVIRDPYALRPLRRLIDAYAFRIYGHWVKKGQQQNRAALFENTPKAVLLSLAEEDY
Death-associated protein kinase 2 (Homo sapiens), sequence (Q9UIK4 whole entry, looked up): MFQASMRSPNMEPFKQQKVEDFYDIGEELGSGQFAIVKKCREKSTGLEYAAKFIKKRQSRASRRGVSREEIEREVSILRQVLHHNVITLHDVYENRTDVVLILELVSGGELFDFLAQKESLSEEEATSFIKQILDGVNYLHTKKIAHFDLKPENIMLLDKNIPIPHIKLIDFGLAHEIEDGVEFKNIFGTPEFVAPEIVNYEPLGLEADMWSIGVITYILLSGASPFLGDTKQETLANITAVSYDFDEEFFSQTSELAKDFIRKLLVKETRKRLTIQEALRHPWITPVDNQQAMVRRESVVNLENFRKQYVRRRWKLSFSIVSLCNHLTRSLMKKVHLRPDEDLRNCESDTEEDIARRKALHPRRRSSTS

Regarding `CC(C)[C@H](NC(=O)c1cc(-c2cnn3cc(-c4ccc(OCCN5CCCCC5)cc4)cnc23)cs1)C(F)(F)F`, the results for the inhibition in experiment [1] and in experiment [3] were 6% and 51%, respectively. Besides, the fold change (FC) was 0 in experiment [2] and 0.11 in experiment [4].

As for `CNC(=O)c1ccccc1Oc1nc(Nc2cc(OC)c(OC)c(OC)c2)ncc1Br`, the fold change (FC) in experiment [5] is 0.
